Experimental data reported in patent publication US20120295982A1, “TREATING HUMAN MALE COPD PATIENTS WITH ORAL BEDORADRINE” (MediciNova, Inc., priority 2011, published 2012).
Where a name gives a salt, the structure may show the parent alone.

Key:
[1] = Phase I open-label single-dose crossover oral bioavailability / PK test of bedoradrine sulfate in healthy volunteers; format: in vivo, human; details: for clearance: CL; for Vd: Vss; for half-life: t½
Protocol: The test was an open-label, randomized, crossover, single dose test of 600 μg (0.6 mg) bedoradrine sulfate in liquid form administered orally and of 300 μg (0.3 mg) bedoradrine sulfate administered by i.v. infusion. All subjects were in an overnight fasting state. Four male and four female subjects were enrolled in the test and received two administration sequences: Day 1: n=4 received 15-minute intravenous infusion of bedoradrine sulfate (300 μg), the other 4 received an oral administration of bedoradrine sulfate (600 μg); Day 8: the 4 subjects administered i.v. MN-221 on Day 1, received oral bedoradrine sulfate and the 4 subjects administered orally with MN-221 on Day 1, receive i.v. bedoradrine sulfate. Subjects were domiciled in the clinical research unit (CRU) for two nights, beginning on Day minus one (−1), one day prior to dosing. First dosing occurred in the morning of Day 1. Subjects were discharged from the CRU approximately 24 hours after dosing (Day 2). There was a one-week washout between doses and subjects returned to the CRU (Day 7) and were domiciled for two days. On the morning of Day 8, subjects received the opposite dosing state (from Day 1) and subjects were then discharged from the CRU approximately 24 hours after dosing (Day 9). Blood samples for plasma selection and bioanalysis were collected on the dosing days before dosing (baseline) and at 0.25, 1, 1.5, 2, 3, 4, 6, 9, 12, and 24 hr after dosing. The bioanalytical results were obtained following HPLC/MS/MS procedures. The limit of quantitation (LLOQ) for these methods was 30.3 picogram (pg)/mL. Plasma MN-221 concentrations were tabulated separately by subject and sampling time and summarized by descriptive statistics. Descriptive statistics included the sample size, mean, standard deviation, median, range, and the coefficient of variation (CV %). Mean plasma concentration-time profiles were illustrated graphically. All plasma concentrations below the limit of quantitation (BLQ) values occurring at predose and up to the first measurable concentration may otherwise be imputed as 1 pg/mL in some analyses or LLOQ. Pharmacokinetic parameters were calculated from individual plasma concentrations-time data by model-independent analysis methods using WinNonlin™. The following parameters were calculated: Cmax (observed maximum plasma concentration), tmax (observed time of maximum plasma concentration), t1/2 (terminal half-life calculated as ln(2)/λz), AUC0-24 (area under the plasma concentration-time curve calculated using the linear trapezoidal rule from time zero to time 24 hr), vss (volume of distribution at steady state), Cl (clearance), and Oral F % (% oral bioavailability). All pharmacokinetic parameters were summarized using descriptive statistics that included the sample size, mean, standard deviation, median, range, and coefficient of variation. Select t-test or non-parametric statistical analysis was optional.

[2] = Oral bioavailability in rats; format: in vivo
[3] = both sexes, human, in vivo, iv, 300 ug, mean
[4] = both sexes, human, in vivo, iv, 300 ug, median
[5] = both sexes, human, in vivo, iv, 300 ug, range
[6] = both sexes, human, in vivo, po, 600 ug, mean
[7] = both sexes, human, in vivo, po, 600 ug, median
[8] = both sexes, human, in vivo, po, 600 ug, range
[9] = both, human, in vivo, po, 600 ug
[10] = female, human, in vivo, po, 600 ug
[11] = human one, in vivo, iv, 300 ug, individual subject
[12] = human two, in vivo, iv, 300 ug, individual subject

CN(C)C(=O)COc1ccc2c(c1)C[C@@H](NC[C@H](O)c1ccc(O)c(CCO)c1)CC2 [MN-221, bedoradrine sulfate]
fold lower oral peak level than Cmax after i.v. dosing ([1]; 0.6 mg oral vs 0.3 mg i.v.): > 30 fold | AUC ([1]; both sexes, human, in vivo, iv, 0.3 mg): ~13 ng·h/mL | AUC(0-t) ([1]; both sexes, human, in vivo, iv, 300 ug, AUC 0-24 h, mean): 13.2 ng·h/mL | AUC(0-t) ([1]; both sexes, human, in vivo, iv, 300 ug, AUC 0-24 h, median): 14.1 ng·h/mL | AUC(0-t) ([1]; both sexes, human, in vivo, iv, 300 ug, AUC 0-24 h, range): 9.31 to 15.5 ng·h/mL | clearance [1, 3]: 322 mL/min | clearance [1, 4]: 307 mL/min | clearance [1, 5]: 252 to 425 mL/min | Cmax ([1]; both sexes, human, in vivo, iv, 300 ug, Cmax, mean): 10.7 ng/mL | Cmax ([1]; both sexes, human, in vivo, iv, 300 ug, Cmax, median): 12.2 ng/mL | Cmax ([1]; both sexes, human, in vivo, iv, 300 ug, Cmax, range): 6.76 to 14.8 ng/mL | Tmax [1, 3]: 0.25 h | Tmax [1, 4]: 0.25 h | Vd [1, 3]: 222 L | Vd [1, 4]: 206 L | Vd [1, 5]: 149 to 325 L | half-life [1, 3]: 12.2 h | half-life [1, 4]: 12.5 h | half-life [1, 5]: 7.4 to 14.6 h | AUC(0-t) ([1]; both sexes, human, in vivo, po, 600 ug, AUC 0-24 h, mean): 1.94 ng·h/mL | AUC(0-t) ([1]; both sexes, human, in vivo, po, 600 ug, AUC 0-24 h, median): 1.85 ng·h/mL | AUC(0-t) ([1]; both sexes, human, in vivo, po, 600 ug, AUC 0-24 h, range): 1.05 to 3.02 ng·h/mL | Cmax ([1]; both sexes, human, in vivo, po, 600 ug, Cmax, mean): 0.305 ng/mL | Cmax ([1]; both sexes, human, in vivo, po, 600 ug, Cmax, median): 0.301 ng/mL | Cmax ([1]; both sexes, human, in vivo, po, 600 ug, Cmax, range): 0.163 to 0.5 ng/mL | Tmax [1, 6]: 1.2 h | Tmax [1, 7]: 1.5 h | Tmax [1, 8]: 0.25 to 2 h | half-life [1, 6]: 16 h | half-life [1, 7]: 15.2 h | half-life [1, 8]: 11 to 23 h | fold lower AUC following oral dosing than at the i.v. dose ([1]; both, human, in vivo): about 7 fold | time at which plasma concentrations peaked ([1]; both, human, in vivo, iv): 0.25 h | time to reach maximal plasma concentrations ([1]; both, human, in vivo, po): ≤ 2 h | Tmax, median [1, 9]: approximately 1.5 hr | t½, mean [1, 9]: 16.1 h | AUC(0-t) ([1]; female, human, in vivo, iv, 300 ug, AUC0-24 h mean): 14.9 ng·h/mL | AUC(0-t) ([1]; female, human, in vivo, iv, 300 ug, AUC0-24 h range): 13.9 to 15.5 ng·h/mL | Cmax ([1]; female, human, in vivo, iv, 300 ug, Cmax mean): 13.1 ng/mL | Cmax ([1]; female, human, in vivo, iv, 300 ug, Cmax range): 12.1 to 14.8 ng/mL | oral F % mean [1, 10]: 4.9% | oral F % range [1, 10]: 3.4-6.1% | AUC(0-t) ([1]; female, human, in vivo, po, 600 ug, AUC0-24 h mean): 1.45 ng·h/mL | AUC(0-t) ([1]; female, human, in vivo, po, 600 ug, AUC0-24 h range): 1.05 to 1.79 ng·h/mL | Cmax ([1]; female, human, in vivo, po, 600 ug, Cmax mean): 0.221 ng/mL | Cmax ([1]; female, human, in vivo, po, 600 ug, Cmax range): 0.163 to 0.299 ng/mL | AUC(0-t) ([1]; human one, in vivo, iv, 300 ug, AUC 0-24 h, individual subject): 10.7 ng·h/mL | clearance [1, 11]: 423 mL/min | Cmax ([1]; human one, in vivo, iv, 300 ug, Cmax, individual subject): 6.76 ng/mL | Tmax [1, 11]: 0.25 h | AUC(0-t) ([1]; human one, in vivo, po, 600 ug, AUC 0-24 h, individual subject): 2.14 ng·h/mL | Tmax ([1]; human one, in vivo, po, 600 ug, individual subject): 1.5 h | AUC(0-t) ([1]; human two, in vivo, iv, 300 ug, AUC 0-24 h, individual subject): 15.5 ng·h/mL | clearance [1, 12]: 252 mL/min | Cmax ([1]; human two, in vivo, iv, 300 ug, Cmax, individual subject): 14.8 ng/mL | Tmax [1, 12]: 0.25 h | Vd [1, 12]: 225 L | half-life [1, 12]: 14.6 h | AUC(0-t) ([1]; human two, in vivo, po, 600 ug, AUC 0-24 h, individual subject): 1.05 ng·h/mL | Cmax ([1]; human two, in vivo, po, 600 ug, Cmax, individual subject): 0.163 ng/mL | oral F % in men relative to women ([1]; human, in vivo, po, 600 ug): two-fold greater | AUC(0-t) ([1]; male, human, in vivo, iv, 300 ug, AUC0-24 h mean): 11.5 ng·h/mL | AUC(0-t) ([1]; male, human, in vivo, iv, 300 ug, AUC0-24 h range): 9.31 to 14.3 ng·h/mL | Cmax ([1]; male, human, in vivo, iv, 300 ug, Cmax mean): 8.42 ng/mL | Cmax ([1]; male, human, in vivo, iv, 300 ug, Cmax range): 6.76 to 12.3 ng/mL | oral F % mean ([1]; male, human, in vivo, po, 600 ug): 11.1% | AUC(0-t) ([1]; male, human, in vivo, po, 600 ug, AUC0-24 h mean): 2.44 ng·h/mL | AUC(0-t) ([1]; male, human, in vivo, po, 600 ug, AUC0-24 h range): 1.91 to 3.02 ng·h/mL | Cmax ([1]; male, human, in vivo, po, 600 ug, Cmax mean): 0.389 ng/mL | Cmax ([1]; male, human, in vivo, po, 600 ug, Cmax range): 0.303 to 0.5 ng/mL | gender difference of oral bioavailability ([2]; orally administered, female vs male rats): greater bioavailability in female rats compared to male rats | bioavailability ([2]; rat, in vivo, po, rats, read-out: Oral F %): ≤ 3%
